Legend:
H3K9me3 demethylases = assay: Histone demethylase activity in H1299 cellular extracts (H3K9me3); type: cell-based, Human; details: JIB-04 4 h, no IR
Description: For Histone demethylase activity determination 2×10^6 H1299 cells were seeded in P150 plates. After 24 h cells were pretreated with JIB-04 or DMSO for 4 h, irradiated with a total dose of 8 Gy of radiation. Then cells were sonicated (3×4 sec) and equal amounts of protein were incubated with a histone H3K4me3 or H3K9me3 substrate in a reaction buffer containing cofactors for 1 h at 37° C. Finally specific immune-detection of the H3K4me2 or H3K9me2 product using the Epigentek kit P-3081 for H3K9me3 demethylation and P-3083 for H3K4me3 demethylation. Background readings were given by heat inactivated extracts.

H1693 T8 = assay: MTS cell viability assay, H1693 T8 resistant variant vs parental; type: cell-based, human; details: H1693 T8 vs parental
Description: (§1) NSCLC lines were treated with paclitaxel+carboplatin combination, given in a ˜2:3 wt/wt ratio, to mirror the clinical dosage values of ˜225 mg/m2 and ˜330 mg/m2, paclitaxel and carboplatin respectively. Note that considering the molecular weights of the two drugs, this translates to approximately a 1 to 3.4 molar ratio. Drugs were given in cycles, following a drug on/drug off treatment scheme. Each cycle consisted of 4-5 days of drug treatment and drug-free culturing for about 1-2 weeks or more to allow the surviving cells to repopulate the plate. […] Untreated parental cells were simultaneously maintained at all times for comparison. Cell viability was assessed in 96-well plates using standard MTS assays (Promega). Treatment duration in MTS assays was 4 days. Drugs were tested in two- or four-fold serial dilutions, totaling 8 different drug concentrations, with 8 replicates per concentration. Response was validated in multiple replicate plates (n≥3).
(§2) Cell viability was assessed by standard MTS assays using Promega's CellTiter reagents. Eight drug concentrations given as two- or four-fold dilutions were tested for each chemotherapeutic agent. In addition, each experiment contained eight replicates per concentration and the entire assay was performed in multiple replicates (n≥3).

[1] = tested on: H1299 T18 chemo-resistant cells; assay: Colony formation, combination with paclitaxel+carboplatin; type: cell-based, human; details: positive ΔBliss
Description: All statistical tests including two-way ANOVA with Sidak's multiple comparisons test, one-way ANOVA with Dunnett's multiple comparisontest, post-test for linear trend and unpaired t-tests were performed using GraphPad Prism 6.00. P values are represented as *P<0.05, **P<0.01, ***P<0.001 and ****P<0.0001. For drug treatments, dose response curves and IC50 values were calculated using GraphPad Prism or in-house DIVISA (Database of InVItro Sensitivity Assays; L. Girard). For drug combination in colony formation, delta Bliss excess was calculated as shown previously (Wilson et al., 2014). Bliss expectation was calculated as A+B−(A×B), where A and B denote the fractional responses from drugs A and B given individually. The difference between Bliss expectation and observed response from combination of drugs A and B at the same doses is the delta Bliss excess.
400 cells were seeded per well in six well plates and treated with various drug concentrations the next day. After 2-3 weeks, colonies were stained with 0.5% crystal violet, 3% formaldehyde solution and counted both manually and automatically using Quantity One image analysis software (Bio-Rad).

γH2AX foci = assay: Immunofluorescence DSB repair kinetics, γH2AX foci; type: cell-based, Human
Description: (§3) NSCLCs were seeded onto Lab-Tek II Chamber Slides (Thermo Fisher) and 24 hours later pretreated with JIB-04 or DMSO for 4 h. Then cells were exposed to a total dose of 2 Gy (γH2AX and 53BP1) or 10 Gy (RAD-51 and DNAPKcs p-T2609) radiation. For knockdown and overexpression experiments H1299 cells were transfected using the Amaxa Nucleofector; program X-005. Specifically, 3×10^6 were transfected with siRNA duplexes targeting JMJD2A, JMJD2B, Jarid1A, Jarid1b, scrambled siRNA (250 nM final concentration) or expression vectors pCMVHA-JMJD2A, pCMVHA-JMJD2B, pCMVHA-Jarid1A, pCMVHA-Jarid1B, PC-2 for 72 hours, followed by quantification of expression or irradiation. Then, cells were fixed in 4% formaldehyde/PBS for 15 min, permeabilized with 0.5% Triton X-100 for 15 min on ice, and blocked with 5% bovine serum albumin in PBS for 1 h. The slides were incubated with an antibody against phospho-Histone γH2AX (1:1000, 3 h at room temperature), 53BP1 (1:500, 3 h at room temperature), Rad-51 (1:500, 48 hs 4° C.) or DNAPKcs p-T2609 (1:500, 48 hs 4° C.). Alexa Fluor 488-conjugated goat anti-Rabbit, […] goat anti-mouse or rhodamine red-conjugated goat anti-mouse secondaries antibodies were used (1:1000, 1 h at room temperature). Slides were mounted in a Vectashield mounting medium containing 4′,6-diamidino-2-phenylindole (DAPI). Cells were analyzed on a Zeiss upright fluorescent microscope.

HCC4017 T5 = assay: MTS cell viability assay, HCC4017 T5 resistant variant vs parental; type: cell-based, human; details: HCC4017 T5 vs parental
Description: as §1, §2

[2] = tested on: radiosensitive (HCC1719, H23, H1650, H1395 and H2228) NSCLC cell lines; assay: Clonogenic survival with IR, radiosensitive NSCLC lines; type: cell-based, Human
Description: Cells were serially diluted to appropriate concentrations and plated into 60-mm dish in triplicate for 4 h. Then cells were treated with the indicated drugs, and irradiated 4 hours later with graded doses of radiation for concurrent treatment or irradiated and 4 hours later the drugs added for post-treatment. All cells were irradiated at room temperature in ambient air using a 137Cs source (Mark 1-68 irradiator, JL Shepherd & Associated). Surviving colonies were stained with crystal violet approximately 10 to 14 days later and colonies formed with more than 50 cells were counted. Clonogenic fraction of irradiated cells was normalized to the plating efficiency of unirradiated controls. The data are presented as the mean±SD. The curve S=e^−(αD+βD2) was fitted to the experimental data using a least square fit algorithm using the program Sigma Plot 11.0 (Systat Software, Inc.).

ABCB1/MDR1 = assay: qRT-PCR of ABCB1/MDR1 in treated H1299 T18 cells; type: cell-based, human; details: for expression of MDR1: H1299 T18 cells
Source text: Total RNA was isolated using RNeasy Plus Mini kit (Qiagen) and cDNA was generated using iScript cDNA synthesis kit (BioRad). For epigenetic enzymes, transcripts were detected by SYBR Green chemistry in real time quantitative PCR assays using validated primers. TBP and GAPDH were used as endogenous controls. […] For all non-epigenetic transcripts, TaqMan probes (Life Technologies) were utilized in multiplex with GAPDH internal reference gene. Additionally, a reference sample containing pooled RNA from normal human and tumor tissues (Stratagene) was used. PCR reactions were run using the ABI 7300 Real-time PCR System and analyzed with the included software. The comparative CT method was used to compute relative mRNA expression.

RAD51 = assay: RAD-51 foci kinetics after IR; type: cell-based, Human; details: JIB-04 25 nM 4 h, 10 Gy
Description: as §3, with “Slides were mounted in a Vectashield mounting medium containing 4′,6-diamidino-2-phenylindole (DAPI).” left out

Structure (SMILES) | basal H3K9me3 demethylase activity (H3K9me3 demethylases) | fold increased sensitivity vs parental (H1693 T8) | colony formation in combination with paclitaxel+carboplatin [1] | γH2AX foci remaining unresolved at late time points (γH2AX foci; H1299 and A549, 4 h pretreatment with colony formation IC50 dose, then IR) | γH2AX foci formation and resolution (γH2AX foci; normal HBEC30KT cells, 500 nM JIB-04, 2 Gy) | γH2AX foci resolution (γH2AX foci; prostate cancer cell line LNCap, JIB-04 and IR, data not shown) | fold increased sensitivity vs parental (HCC4017 T5) | survival fraction at 2 Gy of radiation (SF2) [2] | expression of MDR1 (ABCB1/MDR1) | decrease in ABCB1/MDR1 mRNA expression (ABCB1/MDR1; high dose JIB-04 (10×-20×IC50), 24-48 h treatment) | decrease in ABCB1/MDR1 mRNA expression (ABCB1/MDR1; low dose JIB-04 (1×IC50), 1 wk treatment) | RAD51 foci resolution (RAD51) | RAD51 recruitment (foci formation) (RAD51) | defects in γH2AX foci resolution (γH2AX foci; H1299 and A549, 4 h pretreatment, then IR)
Clc1ccc(N/N=C(\c2ccccc2)c2ccccn2)nc1 [JIB-04] | did not have any effects on basal activity | ~3 fold | synergistic inhibition of colony formation | > 30% | no defects | defects in γH2AX foci resolution | ~3 fold | not affecting already radiosensitive lines | not altered | 10-20% | 10-20% | impaired foci resolution | significantly diminished RAD51 recruitment | –
CCOC(=O)CCNc1cc(N2CCc3ccccc3CC2)nc(-c2ccccn2)n1 [GSK-J4] | – | – | synergistic inhibition of colony formation | – | – | – | – | – | not altered | – | – | – | – | not observed

Reference: patent US11497740B2, “Use of Jumonji C demethylase inhibitors for the treatment and prevention of chemotherapy resistance and radioresistance in cancer” (THE BOARD OF REGENTS OF THE UNIVERSITY OF TEXAS SYSTEM, priority 2016, dated 2022)
